According to patent US20240158446A1, “CYCLIC COMPOUND HAVING SELECTIVE INHIBITORY ACTION ON KRAS OVER HRAS AND NRAS” (CHUGAI SEIYAKU KABUSHIKI KAISHA, priority 2021, published 2024):

Columns and labels:
[1] = biological target: GDP-bound NRAS wild-type protein (Homo sapiens, UniProt P01111); assay: Binding to NRAS by surface plasmon resonance (SPR), Single Cycle Kinetics; details: SPR; for NRAS/KRAS (KD ratio): ratio of KD for GDP-bound NRAS wild-type protein to KD for KRAS; for NRAS/KRAS (ratio of KD value for NRAS to KD value for KRAS): GDP-bound NRAS wild-type protein vs GDP-bound KRAS wild-type protein
Sequence of GDP-bound NRAS wild-type protein (P01111 whole entry): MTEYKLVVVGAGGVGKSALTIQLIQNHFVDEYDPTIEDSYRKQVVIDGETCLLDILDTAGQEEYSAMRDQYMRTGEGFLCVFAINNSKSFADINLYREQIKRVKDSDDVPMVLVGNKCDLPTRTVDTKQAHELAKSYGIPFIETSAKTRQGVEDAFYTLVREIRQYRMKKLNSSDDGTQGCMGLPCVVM

[2] = biological target: GDP-bound KRAS wild-type protein (Homo sapiens, UniProt P01116); assay: Binding to KRAS by surface plasmon resonance (SPR), Single Cycle Kinetics; details: SPR, Single Cycle Kinetics, GDP-bound KRAS wild-type protein; read-out: KRAS KD
Sequence of GDP-bound KRAS wild-type protein (P01116 whole entry): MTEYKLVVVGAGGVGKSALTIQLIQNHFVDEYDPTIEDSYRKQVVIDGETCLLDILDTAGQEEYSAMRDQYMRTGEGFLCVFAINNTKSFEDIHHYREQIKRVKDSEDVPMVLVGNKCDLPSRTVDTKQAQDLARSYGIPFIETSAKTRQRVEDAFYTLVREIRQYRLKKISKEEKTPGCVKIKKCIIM

[3] = biological target: GDP-bound HRAS wild-type protein (Homo sapiens, UniProt P01112); assay: Binding to HRAS by surface plasmon resonance (SPR), Single Cycle Kinetics; details: SPR; for HRAS/KRAS (KD ratio): ratio of KD for GDP-bound HRAS wild-type protein to KD for KRAS; for HRAS/KRAS (ratio of KD value for HRAS to KD value for KRAS): GDP-bound HRAS wild-type protein vs GDP-bound KRAS wild-type protein
Sequence of GDP-bound HRAS wild-type protein (P01112 whole entry): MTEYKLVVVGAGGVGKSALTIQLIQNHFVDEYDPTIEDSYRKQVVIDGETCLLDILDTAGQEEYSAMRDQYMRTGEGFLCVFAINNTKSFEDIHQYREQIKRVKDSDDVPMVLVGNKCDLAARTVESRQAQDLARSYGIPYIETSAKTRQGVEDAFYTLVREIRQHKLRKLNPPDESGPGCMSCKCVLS

## CCO[C@@H]1C[C@H]2C(=O)NC3(CC(C)(C)C3)C(=O)N(C)[C@@H](C3CCCC3)C(=O)N(C)[C@H](C(=O)N(C)CC)CC(=O)N(C)[C@H]3CCCC/C=C/c4ccc(cc4)C[C@@H](C(=O)N(C)CC(=O)N[C@@H](CCc4ccc(C(F)(F)F)c(OC)c4)C(=O)N2C1)N1CC/C=C\C[C@@H](C1=O)N(C)C(=O)CN(C)C(=O)[C@H]([C@@H](C)CC)NC3=O [PP1830, (1S,7S,11R,13S,19S,22S,26S,29S,35S,37Z,47E)-19-cyclopentyl-11-ethoxy-N-ethyl-7-[2-[3-methoxy-4-(trifluoromethyl)phenyl]ethyl]-N,3,3′,3′,18,21,25,31,34-nonamethyl-29-[(1S)-1-methylpropyl]-2,5,8,14,17,20,24,27,30,33,55-undecaoxo-spiro[3,6,9,15,18,21,25,28,31,34,41-undecazapentacyclo[24.15.11.2^43,46.1^35,41.0^9,13]pentapentaconta-37,43(54),44,46(53),47-pentaene-16,1′-cyclobutane]-22-carboxamide]
[1]
  NRAS/KRAS (KD ratio): A (a compound having 10 or more and less than 20 is denoted as A)
[2]
  Kd: 0.054 nM
[3]
  HRAS/KRAS (KD ratio): B (a compound having 3 or more and less than 10 is denoted as B)

## CCO[C@@H]1C[C@H]2C(=O)NC3(CC(C)(C)C3)C(=O)N(C)[C@@H](C3CCCC3)C(=O)N(C)[C@H](C(=O)N(C)C)CC(=O)N(C)[C@H]3CCCC/C=C/c4ccc(cc4)C[C@@H](C(=O)N(C)CC(=O)N[C@@H](CCc4cc(F)c(C(F)(F)F)c(F)c4)C(=O)N2C1)N1CC/C=C\C[C@@H](C1=O)N(C)C(=O)CN(C)C(=O)[C@H]([C@@H](C)CC)NC3=O [PP1831]
[1]
  NRAS/KRAS (KD ratio): A (a compound having 10 or more and less than 20 is denoted as A)
[2]
  Kd: 0.025 nM
[3]
  HRAS/KRAS (KD ratio): A (a compound having 10 or more and less than 20 is denoted as A)

## CCO[C@@H]1C[C@H]2C(=O)NC3(CC(C)(C)C3)C(=O)N(C)[C@@H](C3CCCC3)C(=O)N(C)[C@H](C(=O)N(C)C)CC(=O)N(C)[C@H]3CCCC/C=C/c4ccc(cc4)C[C@@H](C(=O)N(C)CC(=O)N[C@@H](CCc4ccc(C(F)(F)F)c(OC)c4)C(=O)N2C1)N1CC/C=C\C[C@@H](C1=O)N(C)C(=O)CN(C)C(=O)[C@H]([C@@H](C)CC)NC3=O [PP1832]
[1]
  NRAS/KRAS (KD ratio): B (a compound having 3 or more and less than 10 is denoted as B)
[2]
  Kd: 0.04 nM
[3]
  HRAS/KRAS (KD ratio): B (a compound having 3 or more and less than 10 is denoted as B)

## CCO[C@@H]1C[C@H]2C(=O)NC3(CCC3)C(=O)N(C)[C@@H](C3CCCC3)C(=O)N(C)[C@H](C(=O)N(C)CC)CC(=O)N(C)[C@H]3CCC/C=C/c4ccc(cc4)C[C@@H](C(=O)N(C)CC(=O)N[C@@H](CCc4ccc(C(F)(F)F)c(OC)c4)C(=O)N2C1)N1CC/C=C\C[C@@H](C1=O)N(C)C(=O)CN(C)C(=O)[C@H]([C@@H](C)CC)NC3=O [PP1834]
[1]
  NRAS/KRAS (KD ratio): A (a compound having 10 or more and less than 20 is denoted as A)
[2]
  Kd: 0.065 nM
[3]
  HRAS/KRAS (KD ratio): B (a compound having 3 or more and less than 10 is denoted as B)

## CCO[C@@H]1C[C@H]2C(=O)NC3(CC(C)(C)C3)C(=O)N(C)[C@@H](C3CCCC3)C(=O)N(C)[C@H](C(=O)N(C)CC)CC(=O)N(C)[C@H]3CCC/C=C/c4ccc(cc4)C[C@@H](C(=O)N(C)CC(=O)N[C@@H](CCc4cc(F)c(C(F)(F)F)c(F)c4)C(=O)N2C1)N1CC/C=C\C[C@@H](C1=O)N(C)C(=O)CN(C)C(=O)[C@H]([C@@H](C)CC)NC3=O [PP1835]
[1]
  NRAS/KRAS (KD ratio): A (a compound having 10 or more and less than 20 is denoted as A)
[2]
  Kd: 0.051 nM
[3]
  HRAS/KRAS (KD ratio): B (a compound having 3 or more and less than 10 is denoted as B)

## CCO[C@@H]1C[C@H]2C(=O)NC3(CC(C)(C)C3)C(=O)N(C)[C@@H](C3CCCC3)C(=O)N(C)[C@H](C(=O)N(C)CC)CC(=O)N(C)[C@@H](C(C)C)C(=O)N[C@@H]([C@@H](C)CC)C(=O)N(C)CC(=O)N(C)[C@H]3C/C=C\CCN(C3=O)[C@@H](Cc3ccc(C(F)(F)F)cc3)C(=O)N(C)CC(=O)N[C@@H](CCc3cc(F)c(C(F)(F)F)c(F)c3)C(=O)N2C1 [PP2034]
[1]
  NRAS/KRAS (ratio of KD value for NRAS to KD value for KRAS): A (a compound having 10 or more and less than 20 is denoted as A)
[2]
  Kd: 0.19 nM
[3]
  HRAS/KRAS (ratio of KD value for HRAS to KD value for KRAS): A (a compound having 10 or more and less than 20 is denoted as A)

## CCO[C@@H]1C[C@H]2C(=O)NC3(CC(C)(C)C3)C(=O)N(C)[C@@H](C3CCCC3)C(=O)N(C)[C@H](C(=O)N(C)CC)CC(=O)N(C)[C@@H](C3CC3)C(=O)N[C@@H]([C@@H](C)CC)C(=O)N(C)CC(=O)N(C)[C@H]3C/C=C\CCN(C3=O)[C@@H](Cc3ccc(C(F)(F)F)cc3)C(=O)N(C)CC(=O)N[C@@H](CCc3cc(F)c(C(F)(F)F)c(F)c3)C(=O)N2C1 [PP2036]
[1]
  NRAS/KRAS (ratio of KD value for NRAS to KD value for KRAS): A (a compound having 10 or more and less than 20 is denoted as A)
[2]
  Kd: 0.089 nM
[3]
  HRAS/KRAS (ratio of KD value for HRAS to KD value for KRAS): A (a compound having 10 or more and less than 20 is denoted as A)

## CCO[C@@H]1C[C@H]2C(=O)NC3(CC(C)(C)C3)C(=O)N(C)[C@@H](C3CCCC3)C(=O)N(C)[C@H](C(=O)N(C)CC)CC(=O)N(C)[C@@H](C3CCC3)C(=O)N[C@@H]([C@@H](C)CC)C(=O)N(C)CC(=O)N(C)[C@H]3C/C=C\CCN(C3=O)[C@@H](Cc3ccc(C(F)(F)F)cc3)C(=O)N(C)CC(=O)N[C@@H](CCc3cc(F)c(C(F)(F)F)c(F)c3)C(=O)N2C1 [PP2038]
[1]
  NRAS/KRAS (ratio of KD value for NRAS to KD value for KRAS): A (a compound having 10 or more and less than 20 is denoted as A)
[2]
  Kd: 0.16 nM
[3]
  HRAS/KRAS (ratio of KD value for HRAS to KD value for KRAS): A (a compound having 10 or more and less than 20 is denoted as A)

## CCCN(C)C(=O)[C@@H]1CC(=O)N(C)[C@@H](CC(F)F)C(=O)N[C@@H]([C@@H](C)CC)C(=O)N(C)CC(=O)N(C)[C@H]2C/C=C\CCN(C2=O)[C@@H](Cc2ccc(C(F)(F)F)cc2)C(=O)N(C)CC(=O)N[C@@H](CCc2cc(F)c(C(F)(F)F)c(F)c2)C(=O)N2C[C@@H](C)C[C@H]2C(=O)NC2(CC(C)(C)C2)C(=O)N(C)[C@@H](C2CCCC2)C(=O)N1C [PP2040]
[1]
  NRAS/KRAS (ratio of KD value for NRAS to KD value for KRAS): A (a compound having 10 or more and less than 20 is denoted as A)
[2]
  Kd: 0.31 nM
[3]
  HRAS/KRAS (ratio of KD value for HRAS to KD value for KRAS): A (a compound having 10 or more and less than 20 is denoted as A)

## CCCN(C)C(=O)[C@@H]1CC(=O)N(C)[C@@H](COCC)C(=O)N[C@@H]([C@@H](C)CC)C(=O)N(C)CC(=O)N(C)[C@H]2C/C=C\CCN(C2=O)[C@@H](Cc2ccc(C(F)(F)F)cc2)C(=O)N(C)CC(=O)N[C@@H](CCc2cc(F)c(C(F)(F)F)c(F)c2)C(=O)N2C[C@@H](C)C[C@H]2C(=O)NC2(CC(C)(C)C2)C(=O)N(C)[C@@H](C2CCCC2)C(=O)N1C [PP2041]
[1]
  NRAS/KRAS (ratio of KD value for NRAS to KD value for KRAS): A (a compound having 10 or more and less than 20 is denoted as A)
[2]
  Kd: 0.19 nM
[3]
  HRAS/KRAS (ratio of KD value for HRAS to KD value for KRAS): A (a compound having 10 or more and less than 20 is denoted as A)

## CCOC[C@H]1C(=O)N[C@@H]([C@@H](C)CC)C(=O)N(C)CC(=O)N(C)[C@H]2C/C=C\CCN(C2=O)[C@@H](Cc2ccc(C(F)(F)F)cc2)C(=O)N(C)CC(=O)N[C@@H](CCc2cc(F)c(C(F)(F)F)c(F)c2)C(=O)N2C[C@@H](C)C[C@H]2C(=O)NC2(CC(C)(C)C2)C(=O)N(C)[C@@H](C2CCCC2)C(=O)N(C)[C@H](C(=O)N(C)CC)CC(=O)N1C [PP2042]
[1]
  NRAS/KRAS (ratio of KD value for NRAS to KD value for KRAS): A (a compound having 10 or more and less than 20 is denoted as A)
[2]
  Kd: 0.14 nM
[3]
  HRAS/KRAS (ratio of KD value for HRAS to KD value for KRAS): A (a compound having 10 or more and less than 20 is denoted as A)

## CCCOC[C@H]1C(=O)N[C@@H]([C@@H](C)CC)C(=O)N(C)CC(=O)N(C)[C@H]2C/C=C\CCN(C2=O)[C@@H](Cc2ccc(C(F)(F)F)cc2)C(=O)N(C)CC(=O)N[C@@H](CCc2cc(F)c(C(F)(F)F)c(F)c2)C(=O)N2C[C@@H](C)C[C@H]2C(=O)NC2(CC(C)(C)C2)C(=O)N(C)[C@@H](C2CCCC2)C(=O)N(C)[C@H](C(=O)N(C)CC)CC(=O)N1C [PP2043]
[1]
  NRAS/KRAS (ratio of KD value for NRAS to KD value for KRAS): A (a compound having 10 or more and less than 20 is denoted as A)
[2]
  Kd: 0.21 nM
[3]
  HRAS/KRAS (ratio of KD value for HRAS to KD value for KRAS): A (a compound having 10 or more and less than 20 is denoted as A)

## CCO[C@@H]1C[C@H]2C(=O)NC3(CC(C)(C)C3)C(=O)N(C)[C@@H](C3CCCC3)C(=O)N(C)[C@H](C(=O)N(C)CC)CC(=O)N(C)[C@@H](CC(C)C)C(=O)N[C@@H]([C@@H](C)CC)C(=O)N(C)CC(=O)N(C)[C@H]3C/C=C\CCN(C3=O)[C@@H](Cc3ccc(C(F)F)cc3)C(=O)N(C)CC(=O)N[C@@H](CCc3cc(F)c(C(F)(F)F)c(F)c3)C(=O)N2C1 [PP2046]
[1]
  NRAS/KRAS (ratio of KD value for NRAS to KD value for KRAS): A (a compound having 10 or more and less than 20 is denoted as A)
[2]
  Kd: 0.063 nM
[3]
  HRAS/KRAS (ratio of KD value for HRAS to KD value for KRAS): A (a compound having 10 or more and less than 20 is denoted as A)

## CCO[C@@H]1C[C@H]2C(=O)NC3(CC(C)(C)C3)C(=O)N(C)[C@@H](C3CCCC3)C(=O)N(C)[C@H](C(=O)N(C)C)CC(=O)N(C)[C@@H](CC)C(=O)N[C@@H]([C@@H](C)CC)C(=O)N(C)CC(=O)N(C)[C@H]3C/C=C\CCN(C3=O)[C@@H](Cc3ccc(Cl)cc3F)C(=O)N(C)CC(=O)N[C@@H](CCc3cc(F)c(C(F)(F)F)c(F)c3)C(=O)N2C1 [PP2048]
[1]
  NRAS/KRAS (ratio of KD value for NRAS to KD value for KRAS): A (a compound having 10 or more and less than 20 is denoted as A)
[2]
  Kd: 0.071 nM
[3]
  HRAS/KRAS (ratio of KD value for HRAS to KD value for KRAS): B (a compound having 3 or more and less than 10 is denoted as B)
